From patent publication US20230265151A1, “GIP/GLP1 CO-AGONIST COMPOUNDS” (priority 2020, published 2023) come the findings set out here.

The structures appear in SMILES notation. Where two headings read alike, the source gives them in different places. *1 amine or outer side, *2 acyl side, *3 side chain or, on linkers, in order; H or OH if unused. Where a SMILES comes first, the peptide text is derived from it. Side-chain parts run from the residue outwards. [ ]: non-standard residue; d: D form. The star is where a group is joined. γGlu = O=C(O)[C@H](CCC(=O)[*:2])N[*:1]; C14 diacid = O=C(O)CCCCCCCCCCCCC(=O)*; αMeY = C[C@](N)(Cc1ccc(O)cc1)C(=O)O; αMeF = C[C@](N)(Cc1ccccc1)C(=O)O; αMeL = CC(C)C[C@](C)(N)C(=O)O; Orn = NCCC[C@H](N)C(=O)O; AEEA = NCCOCCOCC(=O)O; Aib = CC(C)(N)C(=O)O

What all share (type): cell-based
For one test, the target named is hGLP-1R (Homo sapiens, UniProt P43220). Kind of test: Functional cAMP formation (HTRF) in HEK-293 clonal cells expressing hGLP-1R, 0.1% bovine casein, without or with 1.0% human serum albumin. Details: expressed in transfected cells. The following applies: for Emax: 37° C., 0.1% bovine casein, arithmetic mean; for EC50: cAMP, incubated at 37° C., 0.1% bovine casein (no human serum albumin), geometric mean. The method, boiled down:
(§1)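 Cells were stimulated with peptide for 30 min at 37° C, then intracellular cAMP was measured by competitive HTRF (665/620 nm ratio) and converted to nM using a cAMP standard curve. Relative EC50 and Emax came from four-parameter logistic fits of percent maximal response against peptide concentration.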
Background: cAMP levels reflect the balance of adenylyl cyclase and phosphodiesterase activity.

Another test concerns the target T1, hGIPR (Homo sapiens, UniProt P48546).
T1 construct: expressed in transfected cells
T1 sequence (P48546 22-466): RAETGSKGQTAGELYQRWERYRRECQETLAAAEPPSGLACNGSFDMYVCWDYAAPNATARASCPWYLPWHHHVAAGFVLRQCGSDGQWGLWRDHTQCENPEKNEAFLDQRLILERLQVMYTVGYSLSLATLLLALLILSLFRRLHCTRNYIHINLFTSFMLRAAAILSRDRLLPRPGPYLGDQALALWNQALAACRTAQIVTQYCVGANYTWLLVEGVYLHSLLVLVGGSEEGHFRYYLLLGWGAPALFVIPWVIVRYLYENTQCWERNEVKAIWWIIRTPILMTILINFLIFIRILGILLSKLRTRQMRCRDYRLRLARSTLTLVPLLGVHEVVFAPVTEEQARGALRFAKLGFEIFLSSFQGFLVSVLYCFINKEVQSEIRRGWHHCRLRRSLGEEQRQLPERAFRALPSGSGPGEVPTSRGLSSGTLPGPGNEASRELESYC
Kind of test: Functional cAMP formation (HTRF) in HEK-293 clonal cells expressing hGIPR, 0.1% bovine casein, without or with 1.0% human serum albumin. Conditions: for Emax: 37° C., 0.1% bovine casein, arithmetic mean. In a few lines: as §1

The next test deals with T2, hGCGR (Homo sapiens, UniProt P47871).
T2 construct: expressed in transfected cells
Kind of test: Functional cAMP formation (HTRF) in HEK-293 clonal cells expressing hGCGR, 0.1% bovine casein, without or with 1.0% human serum albumin. Conditions: cAMP, incubated at 37° C., 0.1% bovine casein (no human serum albumin), geometric mean. In a few lines:
as §1

The mark [1] stands for this setting: HEK293, percent of maximal response to GLP-1(7-36)NH2, read-out: hGLP-1R Emax, % ± SEM.
[2] abbreviates: HEK293, percent of maximal response to GIP(1-42)NH2, read-out: hGIPR Emax, % ± SEM.
The mark [3] stands for this setting: read-out: hGCGR EC50, nM (SEM, n).
The mark [4] stands for this setting: HEK293, read-out: hGIPR Emax, % ± SEM, percent of maximal response to GIP(1-42)NH2.

Chain of hGLP-1R (P43220 24-463): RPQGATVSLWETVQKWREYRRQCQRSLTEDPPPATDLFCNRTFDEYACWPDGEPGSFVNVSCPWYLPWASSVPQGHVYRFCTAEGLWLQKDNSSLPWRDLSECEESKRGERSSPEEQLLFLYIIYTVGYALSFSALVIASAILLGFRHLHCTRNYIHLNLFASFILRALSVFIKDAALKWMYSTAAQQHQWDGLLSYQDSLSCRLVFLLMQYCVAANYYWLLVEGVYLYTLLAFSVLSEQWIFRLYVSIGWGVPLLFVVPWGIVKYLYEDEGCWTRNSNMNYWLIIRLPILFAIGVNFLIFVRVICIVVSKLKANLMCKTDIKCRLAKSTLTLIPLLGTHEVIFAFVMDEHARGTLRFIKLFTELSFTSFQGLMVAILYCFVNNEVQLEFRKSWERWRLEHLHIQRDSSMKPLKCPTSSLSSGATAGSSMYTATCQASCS
T2 sequence (P47871 26-477): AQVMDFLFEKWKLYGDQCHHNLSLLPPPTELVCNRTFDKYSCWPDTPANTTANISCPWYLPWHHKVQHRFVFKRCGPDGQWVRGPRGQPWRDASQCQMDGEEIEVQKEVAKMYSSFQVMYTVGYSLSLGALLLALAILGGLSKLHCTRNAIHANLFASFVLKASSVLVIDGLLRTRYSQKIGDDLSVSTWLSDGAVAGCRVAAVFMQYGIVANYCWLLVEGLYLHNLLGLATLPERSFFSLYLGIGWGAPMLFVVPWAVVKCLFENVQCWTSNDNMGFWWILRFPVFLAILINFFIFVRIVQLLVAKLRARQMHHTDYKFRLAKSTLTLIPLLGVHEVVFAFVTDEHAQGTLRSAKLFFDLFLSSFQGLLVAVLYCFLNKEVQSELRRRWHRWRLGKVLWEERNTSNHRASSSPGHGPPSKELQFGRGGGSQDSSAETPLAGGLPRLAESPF

As usually defined, the Emax is the greatest response seen or fitted, relative to the assay's reference. What is called EC50 is the concentration at which the effect is half-maximal. Take `CCCCCCCCCCCC(=O)N[C@@H](CCC(=O)NCCOCCOCC(=O)NCCOCCOCC(=O)NCCCC[C@H](NC(=O)CNC(=O)CNC(=O)[C@H](CCC(=O)O)NC(=O)[C@@H](NC(=O)[C@H](CC(C)C)NC(=O)[C@](C)(Cc1ccc(O)cc1)NC(=O)[C@@H](CCC(=O)O)NC(=O)[C@@H](NC(=O)[C@H](Cc1ccccc1)NC(=O)[C@H](CCC(=O)O)NC(=O)C(C)(C)NC(=O)[C@H](CCC(N)=O)NC(=O)[C@H](C)NC(=O)[C@H](CCCCNC(=O)COCCOCCNC(=O)COCCOCCNC(=O)CC[C@H](NC(=O)CCCCCCCCCCC)C(=O)O)NC(=O)[C@H](CCCN)NC(=O)[C@H](CC(=O)O)NC(=O)[C@H](CC(C)C)NC(=O)[C@](C)(CC(C)C)NC(=O)[C@@H](NC(=O)C(C)(C)NC(=O)[C@@H](NC(=O)[C@H](CC(=O)O)NC(=O)[C@H](CO)NC(=O)[C@@H](NC(=O)[C@](C)(Cc1ccccc1F)NC(=O)[C@@H](NC(=O)CNC(=O)[C@H](CCC(=O)O)NC(=O)C(C)(C)NC(=O)[C@@H](N)Cc1ccc(O)cc1)[C@@H](C)O)[C@@H](C)O)C(C)C)[C@@H](C)CC)[C@@H](C)CC)[C@@H](C)CC)C(=O)N[C@@H](CO)C(=O)N[C@@H](CO)C(=O)NCC(=O)N[C@@H](C)C(=O)N1CCC[C@H]1C(=O)N1CCC[C@H]1C(=O)N1CCC[C@H]1C(=O)N[C@@H](CO)C(N)=O)C(=O)O` [Example 175]: the Emax on hGLP-1R (setting [1]) worked out at 91.1%; on hGIPR (setting [2]) it was 100%. In addition, the EC50 at hGLP-1R (read-out: hGLP-1R EC50, nM (SEM, n)) is 0.227 nM; at hGCGR (setting [3]) it was over 9950 nM.
For `CC[C@H](C)[C@H](NC(=O)[C@H](CC(C)C)NC(=O)[C@](C)(Cc1ccc(O)cc1)NC(=O)[C@@H](CCC(=O)O)NC(=O)[C@@H](NC(=O)[C@H](Cc1ccccc1)NC(=O)[C@H](CCC(=O)O)NC(=O)C(C)(C)NC(=O)[C@H](CCC(N)=O)NC(=O)[C@H](C)NC(=O)[C@H](CCCCNC(=O)COCCOCCNC(=O)COCCOCCNC(=O)CC[C@H](NC(=O)CCCCCCCCCCCCC(=O)O)C(=O)O)NC(=O)[C@H](CCCN)NC(=O)[C@H](CC(=O)O)NC(=O)[C@H](CC(C)C)NC(=O)[C@](C)(CC(C)C)NC(=O)[C@@H](NC(=O)[C@H](CO)NC(=O)[C@@H](NC(=O)[C@H](CC(=O)O)NC(=O)[C@H](CO)NC(=O)[C@@H](NC(=O)[C@](C)(Cc1ccccc1)NC(=O)[C@@H](NC(=O)CNC(=O)[C@H](CCC(=O)O)NC(=O)C(C)(C)NC(=O)[C@@H](N)Cc1ccc(O)cc1)[C@@H](C)O)[C@@H](C)O)C(C)C)[C@@H](C)CC)[C@@H](C)CC)C(=O)N[C@@H](CCC(=O)O)C(=O)NCC(=O)NCC(=O)N[C@@H](CCCCNC(=O)COCCOCCNC(=O)COCCOCCNC(=O)CC[C@H](NC(=O)CCCCCCCCCCCCC(=O)O)C(=O)O)C(=O)N[C@@H](CO)C(=O)N[C@@H](CO)C(=O)NCC(=O)N[C@@H](C)C(=O)N1CCC[C@H]1C(=O)N1CCC[C@H]1C(=O)N1CCC[C@H]1C(=O)N[C@@H](CO)C(N)=O` [Example 179] (H-Y[Aib]EGT[αMeF]TSDVSI[αMeL]LD[Orn]K([AEEA-AEEA-γGlu-C14 diacid])AQ[Aib]EFI[dE][αMeY]LIEGGK([AEEA-AEEA-γGlu-C14 diacid])SSGAPPPS-NH2), the figures for the Emax on hGLP-1R (setting [1]) and on hGIPR (setting [2]) were 99% and 91%, respectively. For the same compound, on hGCGR (setting [3]), the EC50 is over 9950 nM.
As to `CC[C@H](C)[C@H](NC(=O)[C@H](CC(C)C)NC(=O)[C@](C)(Cc1ccc(O)cc1)NC(=O)[C@H](CCC(=O)O)NC(=O)[C@@H](NC(=O)[C@H](Cc1ccccc1)NC(=O)[C@H](CCC(=O)O)NC(=O)C(C)(C)NC(=O)[C@H](CCC(N)=O)NC(=O)[C@H](C)NC(=O)[C@H](CCCCNC(=O)COCCOCCNC(=O)COCCOCCNC(=O)CC[C@H](NC(=O)CCCCCCCCCCCCC(=O)O)C(=O)O)NC(=O)[C@H](CCCN)NC(=O)[C@H](CC(=O)O)NC(=O)[C@H](CC(C)C)NC(=O)[C@](C)(CC(C)C)NC(=O)[C@@H](NC(=O)[C@H](CO)NC(=O)[C@H](Cc1ccncc1)NC(=O)[C@H](CC(=O)O)NC(=O)[C@H](CO)NC(=O)[C@@H](NC(=O)[C@](C)(Cc1ccccc1F)NC(=O)[C@@H](NC(=O)CNC(=O)[C@H](CCC(=O)O)NC(=O)C(C)(C)NC(=O)[C@@H](N)Cc1ccc(O)cc1)[C@@H](C)O)[C@@H](C)O)[C@@H](C)CC)[C@@H](C)CC)C(=O)N[C@@H](CCC(=O)O)C(=O)NCC(=O)NCC(=O)N[C@@H](CCCCNC(=O)COCCOCCNC(=O)COCCOCCNC(=O)CC[C@H](NC(=O)CCCCCCCCCCCCC(=O)O)C(=O)O)C(=O)N[C@@H](CO)C(=O)N[C@@H](CO)C(=O)NCC(=O)N[C@@H](C)C(=O)N1CCC[C@H]1C(=O)N1CCC[C@H]1C(=O)N1CCC[C@H]1C(=O)N[C@@H](CO)C(N)=O` [Example 158], the Emax at hGLP-1R (HEK293, read-out: hGLP-1R Emax, % ± SEM, percent of maximal response to GLP-1(7-36)NH2) was determined as 87.2%; on hGIPR (setting [4]), 93.4%. Also, the EC50 at hGIPR (hGIPR EC50, nM (SEM, n), cAMP, incubated at 37° C., 0.1% bovine casein (no human serum albumin), geometric mean) was 0.0204 nM; on hGCGR (hGCGR EC50, nM (SEM, n)) it was over 9950 nM.
For `CC[C@H](C)[C@H](NC(=O)[C@H](CC(C)C)NC(=O)[C@](C)(Cc1ccc(O)cc1)NC(=O)[C@H](CCCCNC(=O)COCCOCCNC(=O)COCCOCCNC(=O)CC[C@H](NC(=O)CCCCCCCCCCCCC(=O)O)C(=O)O)NC(=O)[C@@H](NC(=O)[C@H](Cc1ccccc1)NC(=O)[C@H](CCC(=O)O)NC(=O)C(C)(C)NC(=O)[C@H](CCC(N)=O)NC(=O)[C@H](C)NC(=O)[C@H](CCCCNC(=O)COCCOCCNC(=O)COCCOCCNC(=O)CC[C@H](NC(=O)CCCCCCCCCCCCC(=O)O)C(=O)O)NC(=O)[C@H](CCCN)NC(=O)[C@H](CC(=O)O)NC(=O)[C@H](CC(C)C)NC(=O)[C@](C)(CC(C)C)NC(=O)[C@@H](NC(=O)C(C)(C)NC(=O)[C@H](Cc1ccncc1)NC(=O)[C@H](CC(=O)O)NC(=O)[C@H](CO)NC(=O)[C@@H](NC(=O)[C@](C)(Cc1ccccc1F)NC(=O)[C@@H](NC(=O)CNC(=O)[C@H](CCC(=O)O)NC(=O)C(C)(C)NC(=O)[C@@H](N)Cc1ccc(O)cc1)[C@@H](C)O)[C@@H](C)O)[C@@H](C)CC)[C@@H](C)CC)C(=O)N[C@@H](CCC(=O)O)C(=O)NCC(=O)NCC(=O)N1CCC[C@H]1C(=O)N[C@@H](CO)C(=O)N[C@@H](CO)C(=O)NCC(=O)N[C@@H](C)C(=O)N1CCC[C@H]1C(=O)N1CCC[C@H]1C(=O)N1CCC[C@H]1C(=O)N[C@@H](CO)C(N)=O` [Example 113], the EC50 was 0.291 nM on hGLP-1R (hGLP-1R EC50, nM (SEM, n)) and over 9950 nM on hGCGR (hGCGR EC50, nM (SEM, n)). Further, the Emax on hGIPR (setting [4]) is 97.9 ± 3.21%.
